This is an account of results in patent US7902354B2, “Lapachone compounds and methods of use thereof” (ArQule, Inc., priority 2006, dated 2011).

One may read the melting point as the temperature, or range, at which the solid turns liquid. By IC50 is commonly meant the point on the concentration scale where inhibition reaches its midpoint.

SMILES strings stand for the structures. Where a name gives a salt, the structure may show the parent alone.

The subject of series [1] is A549 human lung carcinoma cells. In words: MTS cell viability assay, A549 human lung carcinoma cells. The format is cell-based. As to conditions: A549, 4 h compound incubation, MTS, read-out: IC50 Values, Cancerous Cells, Lung A549. On the technique in general: Tetrazolium dyes change colour on reduction, which living cells bring about.
The subject of series [2] is DLD-1 human colon carcinoma cells. Kind of series: MTS cell viability assay, DLD-1 human colon carcinoma cells. It is filed as cell-based. The following applies: DLD-1, 4 h compound incubation, MTS, read-out: IC50 Values, Cancerous Cells, Colon DLD-1.
In series [3] the test system is DU-145 human prostate carcinoma cells. Kind of series: MTS cell viability assay, DU-145 human prostate carcinoma cells. The following applies: DU-145, 4 h compound incubation, MTS, read-out: IC50 Values, Cancerous Cells, Prostate DU-145. The format is cell-based.
The subject of series [4] is K-562 human leukemia cells. In words: MTS cell viability assay, K-562 human leukemia cells. The format is cell-based. As to conditions: K562, K-562, 4 h compound incubation, MTS, read-out: IC50 Values, Cancerous Cells, Leukemia K-562.
The test system of series [5] is PACA-2 human pancreatic carcinoma cells. Kind of series: MTS cell viability assay, PACA-2 human pancreatic carcinoma cells. It is filed as cell-based. The following applies: PACA-2, 4 h compound incubation, MTS, read-out: IC50 Values, Cancerous Cells, Pancreas PACA-2.
The test system of series [6] is NCM-460 normal colon epithelial cells. Kind of series: MTS cell viability assay, NCM-460 normal colon epithelial cells. It is filed as cell-based. As to conditions: for IC50: Homo sapiens, NCM460, NCM-460, 4 h compound incubation, MTS, read-out: IC50 Values, Normal Cells, Colon NCM-460; for Fold Selectivity (NCM-460/DLD1): ratio of IC50 NCM-460 / DLD1.

The molecule `COc1ccc2c(c1)C1=C(SCC3(CCN(C(=O)Oc4cccc(C(F)(F)F)c4)CC3)O1)C(=O)C2=O` registered a melting point of 88 to 89 °C. The same measure, in the same setting: then `CCCC(C)N1CCC2(CC1)CSC1=C(O2)c2ccccc2C(=O)C1=O` (centres unmarked), with 109 to 111 °C; and `O=C1C(=O)c2ccccc2C2=C1SCC1(CCN(CCc3ccccc3)CC1)O2`, with 117 to 118 °C.

Consider `CC(O)(Cc1ccccc1)CN1CCC2(CC1)CSC1=C(O2)c2ccccc2C(=O)C1=O` (centres unmarked), for which the melting point was in the range of 186 to 187 °C. Take `O=C1C(=O)c2ccc(Br)cc2C2=C1SCC1(CCN(C[C@H](O)COc3ccc(Cl)cc3)CC1)O2`: the melting point lay in the range of 150 to 152 °C.

`CC(C)(C)c1ccc(OC[C@@H](O)CN2CCC3(CC2)CSC2=C(O3)c3cc(Cl)ccc3C(=O)C2=O)cc1` registered a melting point of 94 to 97 °C.

In turn, `O=C1C(=O)c2ccc(Cl)cc2C2=C1SCC1(CCN(C[C@@H](O)Cc3ccccc3)CC1)O2` returned a melting point of 92 to 96 °C. `CC(C)(C)c1ccc(OC[C@@H](O)CN2CCCC3(CSC4=C(O3)c3ccccc3C(=O)C4=O)C2)cc1` (some centres unmarked) yielded a melting point of 90 to 92 °C. For `COc1ccc2c(c1)C(=O)C(=O)C1=C2OC2(CCN(C[C@H](O)COc3ccc(C(C)(C)C)cc3)CC2)CS1`, the melting point was in the range of 188 to 190 °C. With `COc1ccc2c(c1)C(=O)C(=O)C1=C2OC2(CCN(C[C@H](O)COc3ccc(F)cc3)CC2)CS1`, the melting point lay in the range of 189 to 191 °C. Still for that read-out and setting: in the case of `COc1ccc2c(c1)C1=C(SCC3(CCN(C[C@H](O)COc4ccc(F)cc4)CC3)O1)C(=O)C2=O` it was 80 to 81 °C; in that of `O=C1C(=O)c2ccc(-c3ccccc3)cc2C2=C1SCC1(CCN(C[C@@H](O)COc3ccc(Cl)cc3)CC1)O2`, 111 to 112 °C. Regarding `O=C1C(=O)c2ccccc2C2=C1SCC1(CCN(C[C@H](O)COc3ccc(C(=O)OCc4ccccc4)cc3)CC1)O2`, the melting point was in the range of 83 to 84 °C. Molecule `O=C1C(=O)c2ccc(F)cc2C2=C1SCC1(CCN(C[C@@H](O)Cc3ccccc3)CC1)O2` returned a melting point of 77 to 79 °C. In the case of `O=C1C(=O)c2ccccc2C2=C1SCC1(CCN(C(=O)NS(=O)(=O)c3ccc(F)cc3)CC1)O2`, the melting point was in the range of 173 to 180 °C. Turning to `O=C1C(=O)c2ccccc2C2=C1SCC1(CCN(C(=O)NS(=O)(=O)c3ccccc3)CC1)O2`, the melting point fell in the range of 155 to 165 °C. On the same count and under the same terms, then `Cc1ccc(S(=O)(=O)NC(=O)N2CCC3(CC2)CSC2=C(O3)c3ccccc3C(=O)C2=O)cc1`, with 153 to 158 °C; and `CC(C)(C)OC(=O)N1CCC2(CC1)CSC1=C(O2)c2cc(-c3ccc(C(F)(F)F)cc3)ccc2C(=O)C1=O`, with 238 to 240 °C. For `CC(C)(C)OC(=O)N1CCC2(CC1)CSC1=C(O2)c2cc(-c3ccccc3C(F)(F)F)ccc2C(=O)C1=O`, the melting point lay within 223 to 225 °C. In turn, `O=C1C(=O)c2ccccc2C2=C1SCC1(CCC(c3ccccc3)CC1)O2` (centres unmarked) yielded a melting point of 183 to 187 °C. On the same count and under the same terms, in the case of `O=C1C(=O)c2ccccc2C2=C1SCC1(CCC3(CC1)OCCO3)O2` it was 251 to 252 °C; in that of `Cl.Cl.O=C1C(=O)c2ccc(N3CCOCC3)cc2C2=C1SCC1(CCNCC1)O2`, over 300 °C; in that of `O=C1C(=O)c2ccc(-c3ccccc3C(F)(F)F)cc2C2=C1SCC1(CCNCC1)O2`, 125 to 127 °C. The same measure, in the same setting: then `O=C1C(=O)c2ccccc2C2=C1SCC1(CCN(C(=O)Cc3ccc(Cl)cc3)CC1)O2`, with 120 to 125 °C; and `O=C1C(=O)c2ccccc2C2=C1SCC1(CCN(C(=O)c3cccc([N+](=O)[O-])c3)CC1)O2`, with 160 to 162 °C; and `O=C1C(=O)c2ccccc2C2=C1SCC1(CCN(C(=O)/C=C/c3ccccc3Cl)CC1)O2`, with 110 to 115 °C. The molecule `O=C1C(=O)c2ccc(-c3ccccc3)cc2C2=C1SCC1(CCN(C(=O)c3cccc(Cl)c3)CC1)O2` registered a melting point of 240 to 241 °C.

For `O=C1C(=O)c2ccc(-c3cccnc3)cc2C2=C1SCC1(CCN(C(=O)c3cccc(Cl)c3)CC1)O2`, the melting point is 240 to 242 °C. Still for that read-out and setting: then `COc1ccc2c(c1)C1=C(SCC3(CCN(C(=O)c4cccc(Cl)c4)CC3)O1)C(=O)C2=O`, with 125 to 127 °C; and `CC(C)(C)OC(=O)N1CCC(CC(=O)N2CCC3(CC2)CSC2=C(O3)c3ccccc3C(=O)C2=O)CC1`, with 110 to 113 °C; and `O=C1C(=O)c2ccccc2C2=C1SCC1(CCN(C(=O)c3cn4c5c(cccc35)CCC4)CC1)O2`, with 265 to 267 °C. Take `CN(C)S(=O)(=O)N1CCC2(CC1)CSC1=C(O2)c2ccccc2C(=O)C1=O`: the melting point is 215 to 218 °C.

As for `O=C(NC1CCC2(CC1)CSC1=C(O2)c2ccccc2C(=O)C1=O)Oc1cccc(C(F)(F)F)c1` (centres unmarked) (as salt: hydrochloride), the melting point fell in the range of 198 to 199 °C. As for `O=C1C(=O)c2ccccc2C2=C1SCC1(CCC(NC(=O)c3cccc(C(F)(F)F)c3)CC1)O2` (centres unmarked) (as salt: hydrochloride), the melting point was in the range of 266 to 267 °C. In the case of `COc1ccc2c(c1)C1=C(SCC3(CCNCC3)O1)C(=O)C2=O` [Compound 20, 9-methoxyspiro[naphtho[1,2-b][1,4]oxathiine-2,4′-piperidine]-5,6-dione], the 50% inhibitory concentration (IC50) in series [1] was over 100 µM; in series [2], 49.5 µM; in series [3] it was 60.5 µM; in series [4] it was 48 µM; in series [5], 27.5 µM; in series [6], 61.7 µM. Also, the “Fold Selectivity (NCM-460/DLD1)” value in series [6] was 1.2.

In the case of `O=C1C(=O)c2ccccc2C2=C1SCC1(CCN(C(=O)c3ccco3)CC1)O2` [Compound 39, 1′-(2-furoyl)spiro[naphtho[1,2-b][1,4]oxathiine-2,4′-piperidine]-5,6-dione], the concentration for half-maximal inhibition (IC50) was 7.69 µM in series [1]; 1.45 µM in series [2]; 3.86 µM in series [3]; 1.87 µM in series [4]; 1.52 µM in series [5]; 6.35 µM in series [6]. Moreover, the “Fold Selectivity (NCM-460/DLD1)” value in series [6] stood at 4.4. `Cc1noc(C)c1C(=O)N1CCC2(CC1)CSC1=C(O2)c2ccccc2C(=O)C1=O` [Compound 40, 1′-[(3,5-dimethylisoxazol-4-yl)carbonyl]spiro[naphtho[1,2-b][1,4]oxathiine-2,4′-piperidine]-5,6-dione]: the IC50 in series [1] worked out at 15.5 µM; in series [2], 4.09 µM; in series [3] it was 14.4 µM; in series [4], 3.92 µM; in series [5], 8.39 µM; in series [6], 10.2 µM. Further, the “Fold Selectivity (NCM-460/DLD1)” value in series [6] worked out at 2.5. Consider `Cc1cc(C(=O)N2CCC3(CC2)CSC2=C(O3)c3ccccc3C(=O)C2=O)c(C)o1` [Compound 41, 1′-(2,5-dimethyl-3-furoyl)spiro[naphtho[1,2-b][1,4]oxathiine-2,4′-piperidine]-5,6-dione], for which the half-maximal inhibitory concentration (IC50) in series [1] came to 4.84 µM; in series [2], 1.58 µM; in series [3], 3.1 µM; in series [4], 1.44 µM; in series [5], 1.47 µM; in series [6] it was 5.8 µM. For the same molecule, the “Fold Selectivity (NCM-460/DLD1)” value in series [6] was determined as 3.7.
